{"source": "patent US20260116920A1", "about": "“HUMAN TRANSFERRIN RECEPTOR BINDING PEPTIDE” (PEPTIDREAM INC., priority 2021, published 2026)", "note": "Positions of bridges follow the written chain, without caps; N, C: chain ends. Non-standard residues stand in square brackets, D forms with d. Residues, ends and D or L forms follow the SMILES beside them. NMePhe(3-Cl) = CN[C@@H](Cc1cccc(Cl)c1)C(=O)O; 3Pal(6-NH2) = Nc1ccc(C[C@H](N)C(=O)O)cn1; NMe3Pal = CN[C@@H](Cc1cccnc1)C(=O)O; NMeY = CN[C@@H](Cc1ccc(O)cc1)C(=O)O; 3Pal = N[C@@H](Cc1cccnc1)C(=O)O; 4Pal = N[C@@H](Cc1ccncc1)C(=O)O; PEG4 = NCCOCCOCCOCCOCCC(=O)O", "data": [{"molecular_target": "T1, human transferrin receptor (hTfR) (Homo sapiens, UniProt P02786)", "T1 construct": "made in house", "T1 sequence (P02786 89-760 limits assumed)": "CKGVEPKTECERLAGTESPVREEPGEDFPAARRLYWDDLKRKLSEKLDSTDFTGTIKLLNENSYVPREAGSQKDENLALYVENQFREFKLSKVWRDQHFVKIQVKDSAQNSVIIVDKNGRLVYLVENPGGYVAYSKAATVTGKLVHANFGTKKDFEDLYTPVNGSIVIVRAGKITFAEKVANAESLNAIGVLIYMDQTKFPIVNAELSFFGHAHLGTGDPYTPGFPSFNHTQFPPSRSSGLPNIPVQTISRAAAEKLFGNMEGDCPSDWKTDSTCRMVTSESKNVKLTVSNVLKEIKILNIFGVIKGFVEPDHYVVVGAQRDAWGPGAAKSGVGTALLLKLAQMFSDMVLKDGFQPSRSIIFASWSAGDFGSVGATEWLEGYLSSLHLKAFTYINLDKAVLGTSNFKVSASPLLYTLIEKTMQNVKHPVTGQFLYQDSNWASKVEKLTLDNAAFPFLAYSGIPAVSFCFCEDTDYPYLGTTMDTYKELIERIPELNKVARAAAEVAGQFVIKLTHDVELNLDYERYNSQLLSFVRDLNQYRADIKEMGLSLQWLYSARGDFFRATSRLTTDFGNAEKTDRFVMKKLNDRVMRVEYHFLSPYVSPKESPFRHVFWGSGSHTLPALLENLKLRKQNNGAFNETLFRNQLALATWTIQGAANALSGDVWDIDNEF", "experiment": "Evaluation of molecular interaction between transferrin receptor (hTfR) and peptide using surface plasmon resonance (SPR)", "assay_type": "binding", "conditions": "surface plasmon resonance, binding to hTfR; KD class symbol; read-out: SPR (KD value)", "summary_of_the_method": "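Recombinant human TfR dimer (0.5 μM) was captured on a Ni-charged NTA chip and amine-coupled with EDC/NHS, then ethanolamine-capped. Peptides at 5–100 nM in HEPES pH 8.0 buffer with 150 mM NaCl, 0.05% Tween 20, 0.1% BSA and 1.0% DMSO were run by single-cycle kinetics; KD came from least-squares curve fitting.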", "units": {"Kd": "nM"}, "values": [{"smiles": "CC[C@H](C)[C@@H]1NC(=O)[C@H](Cc2ccc(OC)cc2)NC(=O)[C@H](Cc2ccc(O)cc2)NC(=O)[C@H](CC(N)=O)NC(=O)[C@H](Cc2c[nH]c3ccccc23)NC(=O)[C@H](C(C)C)NC(=O)[C@H](Cc2cccc(Cl)c2)N(C)C(=O)[C@H](C(C)C)NC(=O)[C@H](C)NC(=O)CSC[C@@H](C(=O)NCCOCCOCCOCCOCCC(N)=O)NC(=O)[C@H](Cc2ccc(O)cc2)N(C)C(=O)[C@H](Cc2ccncc2)NC(=O)[C@H](CCCNC(=N)N)NC(=O)[C@H](CCCNC(=N)N)NC(=O)[C@H]([C@@H](C)CC)NC1=O", "note": "[compound 59]", "Kd": "< 1"}, {"smiles": "CC[C@H](C)[C@@H]1NC(=O)[C@H](Cc2cccnc2)NC(=O)[C@H](Cc2ccc(O)cc2)NC(=O)[C@H](CC(N)=O)NC(=O)[C@H](Cc2c[nH]c3ccccc23)NC(=O)[C@H](C(C)C)NC(=O)[C@H](Cc2cccc(Cl)c2)N(C)C(=O)[C@H](C(C)C)NC(=O)[C@H](C)NC(=O)CSC[C@@H](C(=O)NCCOCCOCCOCCOCCC(N)=O)NC(=O)[C@H](Cc2ccc(O)cc2)N(C)C(=O)[C@H](Cc2ccccc2)NC(=O)[C@H](CCCNC(=N)N)NC(=O)[C@H](CCCNC(=N)N)NC(=O)[C@H]([C@@H](C)CC)NC1=O", "note": "[compound 60] ({CH2CO}-AV[NMePhe(3-Cl)]VWNY[3Pal]IIRRF[NMeY]C[PEG4]-NH2; thioether N-15)", "Kd": "1 to 100"}, {"smiles": "CC[C@H](C)[C@@H]1NC(=O)[C@H](Cc2ccncc2)NC(=O)[C@H](Cc2ccc(O)cc2)NC(=O)[C@H](CC(N)=O)NC(=O)[C@H](Cc2c[nH]c3ccccc23)NC(=O)[C@H](C(C)C)NC(=O)[C@H](Cc2cccc(Cl)c2)N(C)C(=O)[C@H](C(C)C)NC(=O)[C@H](C)NC(=O)CSC[C@@H](C(=O)NCCOCCOCCOCCOCCC(N)=O)NC(=O)[C@H](Cc2ccc(O)cc2)N(C)C(=O)[C@H](Cc2ccccc2)NC(=O)[C@H](CCCNC(=N)N)NC(=O)[C@H](CCCNC(=N)N)NC(=O)[C@H]([C@@H](C)CC)NC1=O", "note": "[compound 61] ({CH2CO}-AV[NMePhe(3-Cl)]VWNY[4Pal]IIRRF[NMeY]C[PEG4]-NH2; thioether N-15)", "Kd": "1 to 100"}, {"smiles": "CC[C@H](C)[C@@H]1NC(=O)[C@H](Cc2ccncc2)NC(=O)[C@H](Cc2ccc(N)nc2)NC(=O)[C@H](CC(N)=O)NC(=O)[C@H](Cc2c[nH]c3ccccc23)NC(=O)[C@H](C(C)C)NC(=O)[C@H](Cc2cccc(Cl)c2)N(C)C(=O)[C@H](C(C)C)NC(=O)[C@H](C)NC(=O)CSC[C@@H](C(=O)NCCOCCOCCOCCOCCC(N)=O)NC(=O)[C@H](Cc2ccc(O)cc2)N(C)C(=O)[C@H](Cc2ccncc2)NC(=O)[C@H](CCCNC(=N)N)NC(=O)[C@H](CCCNC(=N)N)NC(=O)[C@H]([C@@H](C)CC)NC1=O", "note": "[compound 62] ({CH2CO}-AV[NMePhe(3-Cl)]VWN[3Pal(6-NH2)][4Pal]IIRR[4Pal][NMeY]C[PEG4]-NH2; thioether N-15)", "Kd": "1 to 100"}, {"smiles": "CC[C@H](C)[C@@H]1NC(=O)[C@H](Cc2ccc(OC)cc2)NC(=O)[C@H](Cc2ccc(N)nc2)NC(=O)[C@H](CC(N)=O)NC(=O)[C@H](Cc2c[nH]c3ccccc23)NC(=O)[C@H](C(C)C)NC(=O)[C@H](Cc2cccnc2)N(C)C(=O)[C@H](C(C)C)NC(=O)[C@H](C)NC(=O)CSC[C@@H](C(=O)NCCOCCOCCOCCOCCC(N)=O)NC(=O)[C@H](Cc2ccc(O)cc2)N(C)C(=O)[C@H](Cc2ccccc2)NC(=O)[C@H](CCCNC(=N)N)NC(=O)[C@H](CCCNC(=N)N)NC(=O)[C@H]([C@@H](C)CC)NC1=O", "note": "[compound 63] ({CH2CO}-AV[NMe3Pal]VWN[3Pal(6-NH2)]Y(Me)IIRRF[NMeY]C[PEG4]-NH2; thioether N-15)", "Kd": "1 to 100"}]}]}
